Assay results taken from patent publication EP2951180B1, “2,6,7,8 SUBSTITUTED PURINES AS HDM2 INHIBITORS” (Merck Sharp & Dohme Corp., priority 2013, dated 2014).
pIC50: −log10 of the molar value.

target: T1, HDM2 (Homo sapiens, UniProt Q00987); test: FRET assay (HDM2 inhibition; method not described in this part); format: binding; conditions: Table 1
T1 construct: Thioredoxin (N); made in house; host or cells: E. coli strain BL21(DE3)Rosetta
T1 sequence (Q00987 17-125): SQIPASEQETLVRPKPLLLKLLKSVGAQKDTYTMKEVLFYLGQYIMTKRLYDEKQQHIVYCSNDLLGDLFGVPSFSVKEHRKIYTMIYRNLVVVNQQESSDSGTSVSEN

Point of comparison: `C[C@@H](Nc1nc(C(=O)O)nc2nc(-c3cc(OC4CCC4)ccn3)n(Cc3ccc(C(F)(F)F)cc3)c12)C1CCC1` [Example 1.45, 6-{[(1R)-1-cyclobutylethyl]amino}-8-[4-(cyclobutyloxy)pyridin-2-yl]-7-[4-(trifluoromethyl)benzyl]-7H-purine-2-carboxylic acid], pIC50 7.29. Against it:
- C[C@@H](Nc1nc(C(=O)O)nc2nc(-c3cc(-c4ccccc4)ccn3)n(Cc3ccc(C(F)(F)F)cc3)c12)C1CCC1 [Example 1.26, 6-{[(1R)-1-cyclobutylethyl]amino}-8-(4-phenylpyridin-2-yl)-7-[4-(trifluoromethyl)benzyl] - 7H-purine-2-carboxylic acid] — 0.63 log units higher, 7.92
- C[C@@H](Nc1nc(C(=O)O)nc2nc(-c3cc(C(C)(C)O)ccn3)n(Cc3ccc(C(F)(F)F)cc3)c12)C1CCC1 [Example 1.27, 6-{[(1R)-1-cyclobutylethyl]amino}-8-[4-(1-hydroxy-1-methylethyl)pyridin-2-yl]-7-[4-(trifluoromethyl)benzyl]-7H-purine-2-carboxylic acid] — 0.74 log units higher, 8.03
- CC(O)c1ccnc(-c2nc3nc(C(=O)O)nc(N[C@H](C)C4CCC4)c3n2Cc2ccc(C(F)(F)F)cc2)c1 (stereo partly drawn) [Example 1.28, 6-{[(1R)-1-cyclobutylethyl]amino}-8-[4-(1-hydroxyethyl)pyridin-2-yl]-7-[4-(trifluoromethyl)benzyl]-7H-purine-2-carboxylic acid] — 0.62 log units higher, 7.91
- CCc1ccc(O)c(-c2nc3nc(C(=O)O)nc(N[C@H](C)C4CCC4)c3n2Cc2ccc(C(F)(F)F)cc2)c1 [Example 1.29, 6-{[(1R)-1-cyclobutylethyl]amino}-8-(5-ethyl-2-hydroxyphenyl)-7-[4-(trifluoromethyl)benzyl]-7H-purine-2-carboxylic acid] — within 0.2 log units, 7.34
- COCOc1ccc(C(C)C)cc1-c1nc2nc(C(=O)O)nc(N[C@H](C)C3CCC3)c2n1Cc1ccc(C(F)(F)F)cc1 [Example 1.30, 6-{[(1R)-1-cyclobutylethyl]amino}-8-[2-(methoxymethoxy)-5-(1-methylethyl)phenyl]-7-[4-(trifluoromethyl)benzyl]-7H-purine-2-carboxylic acid] — within 0.2 log units, 7.26
- CCc1ccc(OC)c(-c2nc3nc(C(=O)O)nc(N[C@H](C)C4CCC4)c3n2Cc2ccc(C(F)(F)F)cc2)c1 [Example 1.31, 6-{[(1R)-1-cyclobutylethyl]amino}-8-(5-ethyl-2-methoxyphenyl)-7-[4-(trifluoromethyl)benzyl]-7H-purine-2-carboxylic acid] — 0.44 log units higher, 7.73
- CCOc1ccc(CC)cc1-c1nc2nc(C(=O)O)nc(N[C@H](C)C3CCC3)c2n1Cc1ccc(C(F)(F)F)cc1 [Example 1.32, 6-{[(1R)-1-cyclobutylethyl]amino}-8-(2-ethoxy-5-ethylphenyl)-7-[4-(trifluoromethyl)benzyl] - 7H-purine-2-carboxylic acid] — 0.34 log units higher, 7.63
- CCOc1ccc(C(F)(F)F)cc1-c1nc2nc(C(=O)O)nc(N[C@H](C)C3CCC3)c2n1Cc1ccc(C(F)(F)F)cc1 [Example 1.33, 6-{[(1R)-1-cyclobutylethyl]amino}-8-[2-ethoxy-5-(trifluoromethyl)phenyl]-7-[4-(trifluoromethyl)benzyl] - 7H-purine-2-carboxylic acid] — 0.41 log units higher, 7.70
- COc1ccc(C(F)(F)F)cc1-c1nc2nc(C(=O)O)nc(N[C@H](C)C3CCC3)c2n1Cc1ccc(C(F)(F)F)cc1 [Example 1.35, 6-{[(1R)-1-cyclobutylethyl]amino}-8-[2-methoxy-5-(trifluoromethyl)phenyl]-7-[4-(trifluoromethyl)benzyl] - 7H-purine-2-carboxylic acid] — 0.27 log units higher, 7.56
- CCc1ccc(OCOC)c(-c2nc3nc(C(=O)O)nc(N[C@H](C)C4CCC4)c3n2Cc2ccc(C(F)(F)F)cc2)c1 [Example 1.36, 6-{[(1R)-1-cyclobutylethyl]amino}-8-[5-ethyl-2-(methoxymethoxy)pheny 1]-7-[4-(trifluoromethyl)benzyl]-7H-purine-2-carboxylic acid] — 0.35 log units higher, 7.64
- C[C@@H](Nc1nc(C(=O)O)nc2nc(-c3cccc(C(N)=O)c3)n(Cc3ccc(C(F)(F)F)cc3)c12)C1CCC1 [Example 1.37, 8-(3-carbamoylphenyl)-6-{[(1R)-1-cyclobutylethyl]amino}-7-[4-(trifluoromethyl)benzyl]-7H-purine-2-carboxylic acid] — within 0.2 log units, 7.31
- C[C@@H](Nc1nc(C(=O)O)nc2nc(-c3cc(C(F)(F)F)ccc3F)n(Cc3ccc(C(F)(F)F)cc3)c12)C1CCC1 [Example 1.38, 6-{[(1R)-1-cyclobutylethyl]amino}-8-[2-fluoro-5-(trifluoromethyl)phenyl] - 7-[4-(trifluoromethyl)benzyl]-7H-purine-2-carboxylic acid] — 0.27 log units higher, 7.56
- Cc1ccc(N(C)C)cc1-c1nc2nc(C(=O)O)nc(N[C@H](C)C3CCC3)c2n1Cc1ccc(C(F)(F)F)cc1 [Example 1.39, 6-{[(1R)-1-cyclobutylethyl]amino}-8-[5-(dimethylamino)-2-methylphenyl]-7-[4-(trifluoromethyl)benzyl]-7H-purine-2-carboxylic acid] — within 0.2 log units, 7.23
- CCc1ccc(F)c(-c2nc3nc(C(=O)O)nc(N[C@H](C)C4CCC4)c3n2Cc2ccc(C(F)(F)F)cc2)c1 [Example 1.40, 6-{[(1R)-1-cyclobutylethyl]amino}-8-(5-ethyl-2-fluorophenyl)-7-[4-(trifluoromethyl)benzyl]-7H-purine-2-carboxylic acid] — within 0.2 log units, 7.47
- COc1ccc(C(C)C)cc1-c1nc2nc(C(=O)O)nc(N[C@H](C)C3CCC3)c2n1Cc1ccc(C(F)(F)F)cc1 [Example 1.41, 6-{[(1R)-1-cyclobutylethyl]amino}-8-[2-methoxy-5-(1-methylethyl)phenyl]-7-[4-(trifluoromethyl)benzyl]-7H-purine-2-carboxylic acid] — 0.27 log units higher, 7.56
- C[C@@H](Nc1nc(C(=O)O)nc2nc(-c3cc(N(C)C)ccc3O)n(Cc3ccc(C(F)(F)F)cc3)c12)C1CCC1 [Example 1.42, 6-{[(1R)-1-cyclobutylethyl]amino}-8-[5-(dimethylamino)-2-hydroxyphenyl]-7-[4-(trifluoromethyl)benzyl]-7H-purine-2-carboxylic acid] — within 0.2 log units, 7.11
- CCOc1ccnc(-c2nc3nc(C(=O)O)nc(N[C@H](C)C4CCC4)c3n2Cc2ccc(C(F)(F)F)cc2)c1 [Example 1.43, 6-{[(1R)-1-cyclobutylethyl]amino}-8-(4-ethoxypyridin-2-yl)-7-[4-(trifluoromethyl)benzyl] - 7H-purine-2-carboxylic acid] — 0.64 log units higher, 7.93
- C[C@@H](Nc1nc(C(=O)O)nc2nc(-c3cc(Cl)ccn3)n(Cc3ccc(C(F)(F)F)cc3)c12)C1CCC1 [Example 1.44, 8-(4-chloropyridin-2-yl)-6-{[(1R)-1-cyclobutylethyl]amino}-7-[4-(trifluoromethyl)benzyl] - 7H-purine-2-carboxylic acid] — 0.49 log units higher, 7.78
- C[C@@H](Nc1nc(C(=O)O)nc2nc(-c3cc(C(F)F)ccn3)n(Cc3ccc(C(F)(F)F)cc3)c12)C1CCC1 [Example 1.46, 6-{[(1R)-1-cyclobutylethyl]amino}-8-[4-(difluoromethyl)pyridin-2-yl]-7-[4-(trifluoromethyl)benzyl]-7H-purine-2-carboxylic acid] — 0.62 log units higher, 7.91
- C[C@@H](Nc1nc(C(=O)O)nc2nc(-c3cc(N(C)C)ccn3)n(Cc3ccc(C(F)(F)F)cc3)c12)C1CCC1 [Example 1.47, 6-{[(1R)-1-cyclobutylethyl]amino}-8-[4-(dimethylamino)pyridin-2-yl]-7-[4-(trifluoromethyl)benzyl]-7H-purine-2-carboxylic acid] — 0.50 log units higher, 7.79
